In the supplement of paper PMC10331698:
± gives the standard deviation of the averaged measurements.

What was measured:
Experiment in all cases: level (log10 ratio to DMSO vehicle control); higher = higher biomarker level / cell amount than vehicle control
[1] = compound: CCN(CCO)S(=O)(=O)C(F)(F)C(F)(F)C(F)(F)C(F)(F)C(F)(F)C(F)(F)C(F)(F)C(F)(F)F [N-Ethyl-N-(2-hydroxyethyl)perfluorooctanesulfonamide]; details: in DMSO
Experimental: (§1)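 BioMAP Diversity Plus panel of 12 human primary cell co-culture systems (3C, 4H, LPS, SAg, BT, BF4T, BE3C, CASM3C, HDF3CGF, KF3CT, MyoF, Mphg). Compounds were added 1 h before stimulation and left for 24 h (MyoF 48 h; BT 72 h for soluble read-outs or 6 d for IgG). Biomarkers were read by ELISA, cytotoxicity by SRB, PBMC viability and proliferation by Alamar Blue. Each well value was divided by the mean of 8 DMSO control wells on the same plate and log10 transformed; duplicate blinded samples were tested at 4 concentrations.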

[2] = compound: OCCCC(F)(F)C(F)(F)C(F)(F)C(F)(F)C(F)(F)C(F)(F)C(F)(F)F [7:3 Fluorotelomer alcohol]; details: 6700 nM; in DMSO
Experimental: as §1

Perfluorodecanoic acid = compound: O=C(O)C(F)(F)C(F)(F)C(F)(F)C(F)(F)C(F)(F)C(F)(F)C(F)(F)C(F)(F)C(F)(F)F [Perfluorodecanoic acid]; details: in DMSO
Experimental: as §1

[3] = compound: FC(F)(F)C(F)(C(F)(F)F)C(F)(F)C(F)(F)CC1CO1 [3-(Perfluoro-3-methylbutyl)-1,2-propenoxide]; details: in DMSO
Experimental: as §1

[4] = compound: OCC(F)(F)OC(F)(F)C(F)(F)OC(F)(F)CO [1H,1H,8H,8H-Perfluoro-3,6-dioxaoctane-1,8-diol]; details: in DMSO
Experimental: as §1

Perfluoropropanoic acid = compound: O=C(O)C(F)(F)C(F)(F)F [Perfluoropropanoic acid]; details: in DMSO
Experimental: as §1

[5] = compound: O=C(O)C(F)(F)OC(F)(F)C(F)(F)OC(F)(F)F [Perfluoro-3,6-dioxaheptanoic acid]; details: in DMSO
Experimental: as §1

Row | Test System | level (log10) ([1]; 6700 nM) | level (log10) ([1]; 20000 nM) | level (log10) [2] | level (log10) (Perfluorodecanoic acid; 6700 nM) | level (log10) (Perfluorodecanoic acid; 20000 nM) | level (log10) ([3]; 6700 nM) | level (log10) ([3]; 20000 nM) | level (log10) ([4]; 6700 nM) | level (log10) ([4]; 20000 nM) | level (log10) ([4]; 60000 nM) | level (log10) (Perfluoropropanoic acid; 6700 nM) | level (log10) (Perfluoropropanoic acid; 20000 nM) | level (log10) (Perfluoropropanoic acid; 60000 nM) | level (log10) ([5]; 6700 nM) | level (log10) ([5]; 20000 nM) | level (log10) ([5]; 60000 nM)
1 | LPS:SRB | -0.0345 ± 0.0035 | -0.084 ± 0.02 | -0.002 | 0.01 ± 0.0071 | 0.003 ± 0.0042 | 0 ± 0.0042 | -0.0035 ± 0.005 | -0.0075 ± 0.012 | -0.0125 ± 0.0092 | -0.0205 ± 0.005 | -0.0125 ± 0.00071 | -0.0035 ± 0.013 | -0.0065 ± 0.0064 | -0.011 ± 0.0028 | -0.0105 ± 0.00071 | -0.0095 ± 0.00071
2 | LPS:IL-1alpha | -0.098 ± 0.013 | -0.141 ± 0.026 | -0.0615 ± 0.013 | 0.0275 ± 0.016 | -0.0125 ± 0.0092 | -0.0205 ± 0.011 | 0.0155 ± 0.0092 | -0.0135 ± 0.00071 | -0.022 ± 0.011 | 0.0345 ± 0.0092 | -0.047 ± 0.033 | -0.0405 ± 0.037 | -0.0165 ± 0.032 | -0.0605 ± 0.0035 | -0.0075 ± 0.0064 | -0.0055 ± 0.036
3 | SAg:CXCL9/MIG | -0.0135 ± 0.005 | -0.0075 ± 0.013 | -0.0145 ± 0.005 | -0.006 ± 0.011 | -0.0025 ± 0.015 | -0.0255 ± 0.005 | -0.002 ± 0.018 | 0.0075 ± 0.0021 | 0 ± 0.0014 | 0.0065 ± 0.0092 | -0.0015 ± 0.0078 | 0.012 ± 0.0057 | 0.0025 ± 0.022 | 0.006 ± 0.014 | 0.001 ± 0.014 | 0.0055 ± 0.0078
4 | 4H:CCL26/Eotaxin-3 | 0.077 ± 0.031 | -0.143 ± 0.14 | 0.005 ± 0.014 | -0.0085 ± 0.011 | -0.0305 ± 0.011 | -0.002 ± 0.018 | 0.013 ± 0.013 | 0.0015 ± 0.0021 | 0.0015 ± 0.0092 | -0.0035 ± 0.00071 | -0.0115 ± 0.0092 | -0.0045 ± 0.012 | -0.015 ± 0.017 | -0.0115 ± 0.016 | 0.0075 ± 0.0064 | -0.024 ± 0.03
